What all share (type): in vivo
For experiment [1], the system named is Phytophthora infestans. The experiment is described as follows: whole plant or invertebrate. Particulars: in Solanum lycopersicum, 72 h, read-out: Efficiacy in %.
The test system of experiment [2] is Pythium sp. The experiment is described as follows: Pythium sp. test (pea)/seed treatment. Particulars: pea seed dressing, evaluation after 14 days. On the procedure: Pythium sp. test (pea)/seed treatment
(§1) The active compounds are applied as dry seed dressings. These are prepared by extending the respective active compound or the active compound combination with ground minerals to give a finely pulverulent mixture which ensures uniform distribution on the seed surface.
(§2) To dress the seed, the infected seed together with the seed dressing is shaken for 3 minutes in a sealed glass flask.
2×50 corns of seed are sown at a depth of 2 cm in compost soil naturally infected with phythium sp. and cultivated in a greenhouse at a temperature of about 20° C. in seed trays which receive a light regimen of 15 hours per day.
Evaluation is carried out after 14 days. 0% means an efficacy which corresponds to that of the control, while an efficacy of 100% means that no infection is observed.

Experiment [3] deals with Fusarium nivale. The experiment is described as follows: Fusarium nivale test (triticale)/seed treatment. Conditions: triticale seed dressing, about 3 weeks after sowing. The protocol: Fusarium nivale test (triticale)/seed treatment
as §1, §2
2×100 corns of triticale are sown at a depth of 1 cm in standard soil and cultivated in a greenhouse at a temperature of about 10° C. and a relative atmospheric humidity of about 95% in seed trays which receive a light regimen of 15 hours per day.
About 3 weeks after sowing, the plants are evaluated for symptoms. 0% means an efficacy which corresponds to that of the control, while an efficacy of 100% means that no infection is observed.

Turning to `O=C1c2ccccc2C(=O)N1SC(Cl)(Cl)Cl`, the pest or weed control at 2 g/ha in experiment [1] was determined as 12%.

Take `Cc1cc(C)nc(Nc2ccccc2)n1`: in experiment [1], the pest or weed control at 1 g/ha stood at 0%.

For the molecule `Cc1cc(C2CC2)nc(Nc2ccccc2)n1`, the pest or weed control at 1 g/ha in experiment [1] was 0%.

Take `CO/C=C(/C(=O)OC)c1ccccc1Oc1cc(Oc2ccccc2C#N)ncn1`: the pest or weed control at 0.2 g/ha in experiment [1] stood at 51%.

`CO/C=C(/C(=O)OC)c1ccccc1COc1ccccc1C`: in experiment [1], the pest or weed control at 0.2 g/ha was determined as 0%.

For the molecule `CO/N=C(\C1=NOCCO1)c1ccccc1Oc1ncnc(Oc2ccccc2Cl)c1F`, the pest or weed control at 1 g/ha in experiment [1] was 27%.

As to `COc1ccc(C(=CC(=O)N2CCOCC2)c2ccc(Cl)cc2)cc1OC`, the pest or weed control at 0.2 g/ha in experiment [1] stood at 0%.

Turning to `CCNC(=O)NC(=O)C(C#N)=NOC`, in experiment [1], the pest or weed control at 0.2 g/ha was found to be 0%.

For `COCC(=O)N(c1c(C)cccc1C)C(C)C(=O)OC` (centres unmarked), the pest or weed control at 0.2 g/ha in experiment [1] was found to be 0%.

Consider `CCC(C)(NC(=O)c1cc(Cl)c(C)c(Cl)c1)C(=O)CCl` (centres unmarked), for which the pest or weed control at 0.2 g/ha in experiment [1] stood at 0%.

`Cc1ccc(C(C)NC(=O)C(NC(=O)OC(C)C)C(C)C)cc1` (centres unmarked): in experiment [1], the pest or weed control at 0.2 g/ha is 0% and the pest or weed control at 1 g/ha was 0%.

On to `CC(C)(C)C(O)C(Oc1ccc(-c2ccccc2)cc1)n1cncn1` (centres unmarked), for which the pest or weed control at 0.2 g/ha in experiment [1] is 24%.

Turning to `CC(C)(C)C(O)(CCc1ccc(Cl)cc1)Cn1cncn1` (centres unmarked), the pest or weed control at 0.2 g/ha in experiment [1] turned out to be 0%.

Take `CC(C)(C)C(=O)C(Oc1ccc(Cl)cc1)n1cncn1` (centres unmarked): in experiment [1], the pest or weed control at 0.2 g/ha is 0%.

Regarding `CC(C)(C)C(O)C(Oc1ccc(Cl)cc1)n1cncn1` (centres unmarked), the pest or weed control at 0.2 g/ha in experiment [1] was 0%.

As to `OC(Cc1ccccc1Cl)(Cn1nc[nH]c1=S)C1(Cl)CC1` (centres unmarked), the pest or weed control at 0.2 g/ha in experiment [1] came to 0%.

With `CC1(C(=O)Nc2ccc(O)c(Cl)c2Cl)CCCCC1`, in experiment [1], the pest or weed control at 5 g/ha was found to be 0%.

`Cc1noc(C)c1S(=O)(=O)n1c(Br)nc2cc3c(cc21)OC(F)(F)O3` [(Ia), 1-(3,5-dimethyl-isoxazole-4-sulphonyl)-2-bromo6,6-difluoro[1,3]-dioxolo-[4,5f]-benzimidazole]: in experiment [1], the pest or weed control at 0.2 g/ha was determined as 14% and the pest or weed control at 1 g/ha is 65%. Besides, in experiment [2] (500 mg/kg of seed), the Efficacy in % was determined as 1%. In experiment [3] (100 mg/kg of seed), the Efficacy in % is 26%.

On to `Cc1noc(C)c1S(=O)(=O)n1c(Cl)nc2cc3c(cc21)OC(F)(F)O3` [(Ib), 1-(3,5-dimethyl-isoxazole-4-sulphonyl)-2-chloro-6,6-difluoro-[1,3]-dioxolo-[4,5f]-benzimidazole], for which the pest or weed control at 0.2 g/ha in experiment [1] was determined as 37%. In experiment [1], the pest or weed control at 1 g/ha worked out at 76%. Also, the figures for the Efficacy in % in experiment [2] (1000 mg/kg of seed), in experiment [3] (100 mg/kg of seed) and in experiment [3] (500 mg/kg of seed) were 4%, 0% and 0%, respectively.

Regarding `O=[N+]([O-])/N=C1\NCCN1Cc1ccc(Cl)nc1` [(XXII), 1-[(6-chloro-3-pyridinyl)-methyl]-N-nitro-2-imidazolidineimine], the Efficacy in % in experiment [3] (100 mg/kg of seed) is 0%.

For `O=[N+]([O-])/N=C1\NCCN1Cc1ccc(Cl)nc1` [drawing 67], the pest or weed control at 0.2 g/ha in experiment [1] turned out to be 6%.

The values are drawn from patent US20020072535A1 (priority 1997, published 2002).
